# Laboratory results from ChEMBL document CHEMBL6177991, “Discovery of P11-2: A Potent First-in-Class MNK1-Targeting PROTAC Degrader for the Treatment of Cancer” (J Med Chem, 2025).
# pIC50: −log10 of the molar value. Activity calls are given as the source filed them. The rule behind the calls is not given here.
# What was measured:
# Mus musculus = assay: In vivo PROTAC activity at CRBN/MNK1 in human MV4-11 cells xenografted in nude female NSG mouse assessed as induction of MNK1 degradation at 20 mg/kg, ip qd administrated for 16 days by Western blot analysis; assay type: functional, organism-based; conditions: time 16.0 day
# MV4-11 [1] = assay: Anti-proliferative activity against human MV4-11 cells measured after 72 hrs by CCK8 assay; conditions: MV4-11, 72 h
# MOLM-13 = assay: Anti-proliferative activity against human MOLM-13 cells measured after 72 hrs by CCK8 assay; conditions: MOLM-13, 72 h
# MM1.S = assay: Anti-proliferative activity against human MM1.S cells measured after 120 hrs by CCK8 assay
# MV4-11 [2] = assay: Downregulation of SUFU expression level in human MV4-11 cells at 300 nM incubated for 24 hrs by DIA-based quantitative proteomics analysis; assay type: functional, cell-based
# MV4-11 [3] = assay: Effect on GSPT1 expression in human MV4-11 cells at 10 to 1000 nM incubated for 24 hrs by immunoblot analysis; assay type: functional, cell-based; conditions: dose 10-1000 nM
# MV4-11 [4] = assay: Effect on IKZF1 expression in human MV4-11 cells at 10 to 1000 nM incubated for 24 hrs by immunoblot analysis; assay type: functional, cell-based; conditions: dose 10-1000 nM
# [5] = biological target: Protein cereblon/MAP kinase-interacting serine/threonine-protein kinase 2 (Homo sapiens, UniProt Q96SW2+Q9HBH9); assay: PROTAC activity at CRBN/MNK2 in human MV4-11 cells assessed as inhibition of phosphorylated eIF4E level incubated for 24 hrs by immunoblot analysis; assay type: cell-based
# Protein cereblon/MAP kinase-interacting serine/threonine-protein kinase 2, sequence (Q9HBH9 whole entry): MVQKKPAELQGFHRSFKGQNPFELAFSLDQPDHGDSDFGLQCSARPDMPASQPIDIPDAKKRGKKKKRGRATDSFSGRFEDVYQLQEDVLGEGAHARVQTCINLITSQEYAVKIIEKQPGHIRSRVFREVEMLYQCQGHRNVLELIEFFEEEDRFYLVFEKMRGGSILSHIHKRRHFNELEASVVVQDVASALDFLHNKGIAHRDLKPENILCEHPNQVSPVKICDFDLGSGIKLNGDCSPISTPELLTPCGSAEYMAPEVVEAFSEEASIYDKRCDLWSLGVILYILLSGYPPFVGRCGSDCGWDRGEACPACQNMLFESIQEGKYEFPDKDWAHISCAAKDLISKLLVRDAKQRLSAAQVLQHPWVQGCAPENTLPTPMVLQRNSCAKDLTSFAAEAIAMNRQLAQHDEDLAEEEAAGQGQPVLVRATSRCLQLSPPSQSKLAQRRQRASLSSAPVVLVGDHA
# Protein cereblon/MAP kinase-interacting serine/threonine-protein kinase 2, sequence (Q96SW2 whole entry): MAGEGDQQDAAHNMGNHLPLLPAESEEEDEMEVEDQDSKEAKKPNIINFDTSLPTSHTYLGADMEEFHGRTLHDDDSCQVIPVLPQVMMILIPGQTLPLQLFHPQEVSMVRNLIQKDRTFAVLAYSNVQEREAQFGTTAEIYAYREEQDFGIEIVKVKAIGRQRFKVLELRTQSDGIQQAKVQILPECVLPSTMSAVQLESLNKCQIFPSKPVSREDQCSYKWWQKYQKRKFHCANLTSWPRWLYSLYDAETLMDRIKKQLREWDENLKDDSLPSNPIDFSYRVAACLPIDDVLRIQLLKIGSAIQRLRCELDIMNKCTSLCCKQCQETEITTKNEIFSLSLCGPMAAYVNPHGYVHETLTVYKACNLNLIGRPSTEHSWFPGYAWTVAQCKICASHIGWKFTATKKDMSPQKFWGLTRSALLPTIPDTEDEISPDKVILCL
# MV4-11 [6] = assay: Upregulation of cell cycle regulation related protein expression in human MV4-11 cells by GO analysis; assay type: functional, cell-based
# MV4-11 [7] = assay: Upregulation of apoptosis pathway related protein expression in human MV4-11 cells by GO analysis; assay type: functional, cell-based
# MV4-11 [8] = assay: Upregulation of protein translation pathway related protein expression in human MV4-11 cells by GO analysis; assay type: functional, cell-based
# MV4-11 [9] = assay: Upregulation of ubiquitin-mediated protein degradation pathway related protein expression in human MV4-11 cells by GO analysis; assay type: functional, cell-based
# MV4-11 [10] = assay: Upregulation of PI3K-Akt pathway related protein expression in human MV4-11 cells by GO analysis; assay type: functional, cell-based
# MV4-11 [11] = assay: Upregulation of ubiquitin-mediated proteolysis pathway related protein expression in human MV4-11 cells by GO analysis; assay type: functional, cell-based
# MV4-11 [12] = assay: Upregulation of PI3K-Akt pathway related protein expression in human MV4-11 cells by KEGG analysis; assay type: functional, cell-based
# MV4-11 [13] = assay: Induction of apoptosis in human MV4-11 cells assessed as necrotic cells at 30 nM incubated for 24 hrs by Annexin V-FITC/PI dual staining based flow cytometric analysis (reference value: 0.16 %); assay type: functional
# MV4-11 [14] = assay: Induction of apoptosis in human MV4-11 cells assessed as early apoptotic cells at 100 nM incubated for 24 hrs by Annexin V-FITC/PI dual staining based flow cytometric analysis (reference value: 3.42 %); assay type: functional
# MV4-11 [15] = assay: Induction of apoptosis in human MV4-11 cells assessed as late apoptotic cells at 100 nM incubated for 24 hrs by Annexin V-FITC/PI dual staining based flow cytometric analysis (reference value: 1.48 %); assay type: functional
# MV4-11 [16] = assay: Induction of apoptosis in human MV4-11 cells assessed as necrotic cells at 100 nM incubated for 24 hrs by Annexin V-FITC/PI dual staining based flow cytometric analysis (reference value: 0.16 %); assay type: functional
# MV4-11 [17] = assay: Induction of apoptosis in human MV4-11 cells assessed as viable cells at 300 nM incubated for 24 hrs by Annexin V-FITC/PI dual staining based flow cytometric analysis (reference value: 94.9 %); assay type: functional; conditions: read-out: Activity
# MV4-11 [18] = assay: Induction of apoptosis in human MV4-11 cells assessed as late apoptotic cells at 300 nM incubated for 24 hrs by Annexin V-FITC/PI dual staining based flow cytometric analysis (reference value: 1.48 %); assay type: functional
# MV4-11 [19] = assay: Induction of cell cycle arrest in human MV4-11 cells assessed as increase in accumulation of cells at G1 phase at 30 to […] incubated for 24 hrs by PI staining based flow cytometric analysis; assay type: functional; conditions: dose lower 30.0 µM
# [20] = AUC (0 to t) in male Sprague-Dawley rat at 1 mg/kg, iv measured up to 24 hrs by LC-MS analysis; assay type: ADME, organism-based; conditions: in vivo
# [21] = Tmax in male Sprague-Dawley rat at 20 mg/kg, po measured up to 24 hrs by LC-MS analysis; assay type: ADME, organism-based; conditions: in vivo
# [22] = Tmax in male Sprague-Dawley rat at 5 mg/kg, ip measured up to 24 hrs by LC-MS analysis; assay type: ADME, organism-based; conditions: in vivo
# [23] = Half life in male Sprague-Dawley rat at 5 mg/kg, ip measured up to 24 hrs by LC-MS analysis; assay type: ADME, organism-based; conditions: in vivo
# [24] = Clearance in male Sprague-Dawley rat at 1 mg/kg, iv measured up to 24 hrs by LC-MS analysis; assay type: ADME, organism-based; conditions: in vivo
# [25] = Oral bioavailability in male Sprague-Dawley rat at 20 mg/kg measured up to 24 hrs by LC-MS analysis; assay type: ADME, organism-based; conditions: in vivo
# MV4-11 [26] = assay: Antitumor activity against human MV4-11 cells xenografted in nude female NSG mouse assessed as tumor growth inhibition at 20 mg/kg, ip qd administrated for 16 days by caliper method relative to control; assay type: functional; conditions: MV4-11, 384 h, time 16 day, read-out: TGI
# [27] = Toxicity in nude female NSG mouse xenografted with human MV4-11 cells assessed as change in body weight at 20 mg/kg, ip qd administrated for 16 days; assay type: organism-based; conditions: in vivo, 384 h, time 16 day
# [28] = Hepatotoxicity in nude female NSG mouse xenografted with human MV4-11 cells assessed as change in serum TBA level at 20 mg/kg, ip qd administrated for 16 days; assay type: toxicity, organism-based; conditions: in vivo, 384 h, time 16 day
# [29] = Toxicity in male ICR mouse assessed as histopathological change in spleen at 100 mg/kg, ip measured after 14 days by hematoxylin and eosin staining based analysis; assay type: organism-based; conditions: in vivo, 336 h, time 14 day
# [30] = Toxicity in male ICR mouse assessed as change in serum TBA level at 100 mg/kg, ip measured after 14 days; assay type: organism-based; conditions: in vivo, 336 h, time 14 day
# [31] = Toxicity in male ICR mouse assessed as change in serum BUN level at 100 mg/kg, ip measured after 14 days; assay type: organism-based; conditions: in vivo, 336 h, time 14 day
# [32] = Toxicity in male ICR mouse assessed as change in serum creatinine level at 100 mg/kg, ip measured after 14 days; assay type: organism-based; conditions: in vivo, 336 h, time 14 day
# [33] = Toxicity in male ICR mouse assessed as change in serum uric acid level at 100 mg/kg, ip measured after 14 days; assay type: organism-based; conditions: in vivo, 336 h, time 14 day
# [34] = Toxicity in male ICR mouse assessed as change in serum AST level at 100 mg/kg, ip measured after 14 days; assay type: organism-based; conditions: in vivo, 336 h, time 14 day
# [35] = Toxicity in nude female NSG mouse xenografted with human MV4-11 cells assessed as change in serum uric acid level at 20 mg/kg, ip qd administrated for 16 days; assay type: organism-based; conditions: in vivo, 384 h, time 16 day
# [36] = Toxicity in nude female NSG mouse xenografted with human MV4-11 cells assessed as change in serum BUN level at 20 mg/kg, ip qd administrated for 16 days; assay type: organism-based; conditions: in vivo, 384 h, time 16 day
compound,measurement,setting,value
O=C1CCC(N2Cc3c(NC(=O)CCCCCC(=O)N4CCC(C(=O)Nc5ncc(-c6ccccc6)s5)CC4)cccc3C2=O)C(=O)N1 (centres undefined),Activity,Mus musculus,Active
same,pIC50,MV4-11 [1],7.35
same,pIC50,MOLM-13,6.21
same,pIC50,MM1.S,6.62
same,Activity,MV4-11 [2],Active
same,Activity,MV4-11 [3],No effect
same,Activity,MV4-11 [4],No effect
same,pIC50,[5],7.66
same,Activity,MV4-11 [6],Active
same,Activity,MV4-11 [7],Active
same,Activity,MV4-11 [8],Active
same,Activity,MV4-11 [9],Active
same,Activity,MV4-11 [10],Active
same,Activity,MV4-11 [11],Active
same,Activity,MV4-11 [12],Active
same,Activity,MV4-11 [13],0.27%
same,Activity,MV4-11 [14],14.1%
same,Activity,MV4-11 [15],13.7%
same,Activity,MV4-11 [16],0.69%
same,viability at 0.3 µM,MV4-11 [17],28%
same,Activity,MV4-11 [18],42.1%
same,Activity,MV4-11 [19],Active
same,AUC(0-t) at 24 h,[20],7020 ng·h/mL
same,Tmax,[21],1.4 h
same,Tmax,[22],0.5 h
same,half-life,[23],5.2 h
same,clearance,[24],2.38 mL/min/kg
same,bioavailability,[25],2.1%
same,inhibition in vivo at 20 mg/kg,MV4-11 [26],> 90%
same,Activity,[27],Non-toxic
same,Activity,[28],Non-toxic
same,Activity,[29],Non-toxic
same,Activity,[30],Non-toxic
same,Activity,[31],Non-toxic
same,Activity,[32],Non-toxic
same,Activity,[33],Non-toxic
same,Activity,[34],Non-toxic
same,Activity,[35],Non-toxic
same,Activity,[36],Non-toxic
